The values below come from patent US6649201B2, “Eggshell derived monocalcium and dicalcium phosphate” (Board of Regents of University of Nebraska, priority 2001, dated 2003).

This data set in a line: 21-day starter chick feeding study: relative bioavailability of phosphate sources (slope ratio assay). The note with it: in vivo. The source says:
(CDP) source in starter chick diets. […] Each dietary treatment was replicated six times with eleven chicks per pen during a 21-day experimental period. […] A slope ratio assay using linear regression analysis was used to determine relative bioavailabilities.

As to “eggshell derived monocalcium phosphate [EDMCP]”, the “availability of the phosphate fraction to the animal vs currently available commercial products” value was “more available”.
